Source: PubChem BioAssay (NCI)
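Following 48 hours of exposure in 96-well plates, responses at five concentrations were used to interpolate endpoints linearly. TGI: concentration producing complete growth inhibition.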

Tests used:
Experiment in all cases: NCI tumour cell line growth inhibition, 48 h
786-0 renal = tested on: 786-0 renal
A498 renal = tested on: A498 renal
A549 NSCLC = tested on: A549 NSCLC
ACHN renal = tested on: ACHN renal
BT-549 breast = tested on: BT-549 breast
CCRF-CEM leukemia = tested on: CCRF-CEM leukemia
COLO 205 colon = tested on: COLO 205 colon
DU-145 prostate = tested on: DU-145 prostate
EKVX NSCLC = tested on: EKVX NSCLC
HCC-2998 colon = tested on: HCC-2998 colon
HCT-116 colon = tested on: HCT-116 colon
HCT-15 colon = tested on: HCT-15 colon
HL-60(TB) leukemia = tested on: HL-60(TB) leukemia
HOP-62 NSCLC = tested on: HOP-62 NSCLC
HOP-92 NSCLC = tested on: HOP-92 NSCLC
HS 578T breast = tested on: HS 578T breast
HT29 colon = tested on: HT29 colon
IGROV1 ovarian = tested on: IGROV1 ovarian
K-562 leukemia = tested on: K-562 leukemia
KM12 colon = tested on: KM12 colon
LOX IMVI melanoma = tested on: LOX IMVI melanoma
M14 melanoma = tested on: M14 melanoma
MALME-3M melanoma = tested on: MALME-3M melanoma
MDA-MB-435 = tested on: MDA-MB-435
MDA-N = tested on: MDA-N
MOLT-4 leukemia = tested on: MOLT-4 leukemia
NCI-H226 lung = tested on: NCI-H226 lung
NCI-H460 lung = tested on: NCI-H460 lung
NCI-H522 lung = tested on: NCI-H522 lung
NCI/ADR-RES ovarian = tested on: NCI/ADR-RES ovarian
OVCAR-3 ovarian = tested on: OVCAR-3 ovarian
OVCAR-4 ovarian = tested on: OVCAR-4 ovarian
OVCAR-5 ovarian = tested on: OVCAR-5 ovarian
OVCAR-8 ovarian = tested on: OVCAR-8 ovarian
PC-3 prostate = tested on: PC-3 prostate
RPMI-8226 leukemia = tested on: RPMI-8226 leukemia
RXF 393 renal = tested on: RXF 393 renal
SF-268 CNS = tested on: SF-268 CNS
SF-295 CNS = tested on: SF-295 CNS
SF-539 CNS = tested on: SF-539 CNS
SK-MEL-2 melanoma = tested on: SK-MEL-2 melanoma
SK-MEL-28 melanoma = tested on: SK-MEL-28 melanoma
SK-MEL-5 melanoma = tested on: SK-MEL-5 melanoma
SK-OV-3 ovarian = tested on: SK-OV-3 ovarian
SN12C renal = tested on: SN12C renal
SNB-19 CNS = tested on: SNB-19 CNS
SNB-75 CNS = tested on: SNB-75 CNS
SR leukemia = tested on: SR leukemia
SW-620 colon = tested on: SW-620 colon
T-47D breast = tested on: T-47D breast
TK-10 renal = tested on: TK-10 renal
U251 CNS = tested on: U251 CNS
UACC-257 melanoma = tested on: UACC-257 melanoma
UACC-62 melanoma = tested on: UACC-62 melanoma
UO-31 renal = tested on: UO-31 renal
CAKI-1 renal = tested on: CAKI-1 renal
MCF7 breast = tested on: MCF7 breast
MDA-MB-231 breast = tested on: MDA-MB-231 breast
NCI-H23 lung = tested on: NCI-H23 lung

Measured: TGI

CCOC(=O)c1c(N2CCCC2)ncn(-c2ccccc2)c1=S
not listed: CAKI-1 renal | MCF7 breast | MDA-MB-231 breast | NCI-H23 lung
> 100 µM: all other assays above

Cc1ccc(C(=O)N/N=C(\N=Nc2cccc(Cl)c2)c2ccc(N(CCC#N)CCC#N)cc2C)cc1
not listed: HS 578T breast | SF-268 CNS
> 100 µM: all other assays above

Cc1nc2c3c(ncn2n1)Oc1c(c(-c2ccccc2)nn1-c1ccccc1)C3c1ccc(Cl)cc1 (configuration not stated)
97.1 µM: SF-539 CNS
74.1 µM: HS 578T breast
not listed: BT-549 breast | CCRF-CEM leukemia | HL-60(TB) leukemia | NCI-H522 lung | SK-MEL-5 melanoma
> 100 µM: all other assays above

O=C(/C(=C\C(=O)c1cccs1)c1ccsc1)c1ccc(Br)cc1
not listed: BT-549 breast | HOP-92 NSCLC | LOX IMVI melanoma | NCI-H522 lung | OVCAR-3 ovarian | OVCAR-4 ovarian | OVCAR-5 ovarian | RXF 393 renal
> 100 µM: all other assays above
